The text below walks through data of patent US11802127B2, “3,4-dihydro-2,7-naphthyridine-1,6(2H,7H)-diones as MEK inhibitors” (Pfizer Inc., priority 2021, dated 2023).

Structures can show the parent of a compound that is named as a salt.

The IC50 is the point on the concentration scale where inhibition reaches its midpoint. A lower IC50 goes with inhibition by little substance.

The test relates to ERK1/2(Thr202/Tyr204) phosphorylation (MEK-dependent) in A375 cells. Briefly: Cellular Phospho-p44/42 MAPK (Erk1/2) (Thr202/Tyr204) Assay. Type of test: cell-based. The settings on record: Homo sapiens, A-375, 1-hour incubation, pERK1/2 (Thr202/Tyr204) In-Cell Western normalized to GAPDH. As for the experimental part:
Inhibition of ERK1/2(Thr202/Tyr204) phosphorylation was determined by the following cellular assay, which comprises incubating cells with a compound for 1 hour and quantifying pERK signal by In-Cell Western on fixed cells and normalizing to GAPDH signal. A375 cells were obtained from the ATCC and grown in DMEM supplemented with 10% fetal bovine serum, penicillin/streptomycin, Glutamax®, non-essential amino acids, and sodium pyruvate. Cells were plated in 96-well plates at 30,000 cells/well and allowed to attach overnight at 37° C./5% CO2. Cells were treated with compounds prepared as a 10-point, 1:3 dilution series (range: 20 μM-0.05 nM; maximum concentration varied from 20 μM-1 μM), with a final DMSO concentration of 0.5%. Control wells contained either 0.5% DMSO alone (no inhibition control) or 1 μM of a potent control compound (complete inhibition control). After a 1-hour incubation, cells were fixed in 3.7% formaldehyde in dPBS (Dulbecco's phosphate-buffered saline) at room temperature for 20 minutes. Cells were then washed with dPBS and permeabilized in 100% MeOH at room temperature for 10 minutes. Following permeabilization, cells were washed in dPBS and incubated in LI-COR Blocking Buffer (LI-COR Biosciences, Cat #927-40000) for 1 hour or longer. Plates were then incubated with an antibody specific for the MEK-dependent ERK1/2 phosphorylation sites, threonine 202 and tyrosine 204 (Cell Signaling Technologies; Cat #9101), downstream of MEK in the MAP kinase signal transduction pathway, as well as GAPDH (Millipore; Cat #MAB374). pErk1/2 (Thr202/Tyr204) antibody was diluted in LI-COR blocking buffer containing 0.05% Tween-20 at 1:250; GAPDH was diluted at 1:2,500. The plates were incubated overnight at 4° C. After washing with PBS/0.05% Tween-20, the cells were incubated with fluorescently-labeled secondary antibodies (Anti-rabbit-Alexa Flour680, Invitrogen Cat #A21109; Anti-mouse-IRDye800CW, LI-COR Biosciences Cat #926-32210, both at 1:1000 dilution) for 1 hour. Cells were then washed, as above, and analyzed for fluorescence at both 680 and 800 nm wavelengths using the Odyssey CLx Infrared Imaging System (LI-COR Biosciences). Phosphorylated Erk1/2 (Thr202/Tyr204) signal was normalized to GAPDH signal for each well.
In turn, `Cn1c(Nc2ccc(Br)cc2F)c2c(cc1=O)CCN(OCC1CC1)C2=O` [Example 2, 8-((4-bromo-2-fluorophenyl)amino)-2-(cyclopropylmethoxy)-7-methyl-3,4-dihydro-2,7-naphthyridine-1,6(2H,7H)-dione] returned an IC50 of 1030 nM.
The figure for `Cn1c(Nc2ccc(Br)c(F)c2F)c2c(cc1=O)CCN(OCCO)C2=O` [Example 11, 8-((4-bromo-2,3-difluorophenyl)amino)-2-(2-hydroxyethoxy)-7-methyl-3,4-dihydro-2,7-naphthyridine-1,6(2H,7H)-dione] is 199 nM.
The molecule `Cn1c(Nc2ccc(Br)c(Cl)c2F)c2c(cc1=O)CCN(OCCO)C2=O` [Example 12, 8-((4-bromo-3-chloro-2-fluorophenyl)amino)-2-(2-hydroxyethoxy)-7-methyl-3,4-dihydro-2,7-naphthyridine-1,6(2H,7H)-dione] yielded an IC50 of 1060 nM.
To `Cn1c(Nc2ccc(C(F)(F)F)cc2F)c2c(cc1=O)CCN(OCCO)C2=O` [Example 13, 8-((2-fluoro-4-(trifluoromethyl)phenyl)amino)-2-(2-hydroxyethoxy)-7-methyl-3,4-dihydro-2,7-naphthyridine-1,6(2H,7H)-dione] belongs 178 nM; to `COc1ccc(Nc2c3c(cc(=O)n2C)CCN(OCCO)C3=O)c(F)c1` [Example 16, 8-((2-fluoro-4-methoxyphenyl)amino)-2-(2-hydroxyethoxy)-7-methyl-3,4-dihydro-2,7-naphthyridine-1,6(2H,7H)-dione], 274 nM; to `Cn1c(Nc2ccc(SC(F)(F)F)cc2F)c2c(cc1=O)CCN(OCCO)C2=O` [Example 17, 8-((2-fluoro-4-((trifluoromethyl)thio)phenyl)amino)-2-(2-hydroxyethoxy)-7-methyl-3,4-dihydro-2,7-naphthyridine-1,6(2H,7H)-dione], 256 nM.
To `CC(=O)c1ccc(Nc2c3c(cc(=O)n2C)CCN(OCCO)C3=O)c(F)c1` [Example 20, 8-((4-acetyl-2-fluorophenyl)amino)-2-(2-hydroxyethoxy)-7-methyl-3,4-dihydro-2,7-naphthyridine-1,6(2H,7H)-dione] belongs 632 nM.
The figure for `Cn1c(Nc2ccc(OC(F)(F)F)cc2F)c2c(cc1=O)CCN(OCCO)C2=O` [Example 24, 8-((2-fluoro-4-(trifluoromethoxy)phenyl)amino)-2-(2-hydroxyethoxy)-7-methyl-3,4-dihydro-2,7-naphthyridine-1,6(2H,7H)-dione] is 466 nM.
The molecule `Cn1c(Nc2ccc(I)cc2F)c2c(cc1=O)CCN(OC(C)(C)C)C2=O` [Example 30, 2-(tert-butoxy)-8-((2-fluoro-4-iodophenyl)amino)-7-methyl-3,4-dihydro-2,7-naphthyridine-1,6(2H,7H)-dione] registered a half-maximal inhibitory concentration (IC50) of 421 nM.
The figure for `C[C@@H](O)CON1CCc2cc(=O)n(C)c(Nc3ccc(Br)cc3F)c2C1=O` [Example 34, (R)-8-((4-bromo-2-fluorophenyl)amino)-2-(2-hydroxypropoxy)-7-methyl-3,4-dihydro-2,7-naphthyridine-1,6(2H,7H)-dione] is 207 nM.
The figure for `Cc1c2c(c(Nc3ccc(Br)cc3F)n(C)c1=O)C(=O)N(OC[C@@H](C)O)CC2` [Example 35, (R)-8-((4-bromo-2-fluorophenyl)amino)-2-(2-hydroxypropoxy)-5,7-dimethyl-3,4-dihydro-2,7-naphthyridine-1,6(2H,7H)-dione] is 229 nM.
The figure for `Cn1c(Nc2ccccc2F)c2c(c(I)c1=O)CCN(OCCO)C2=O` [Example 41, 8-((2-fluorophenyl)amino)-2-(2-hydroxyethoxy)-5-iodo-7-methyl-3,4-dihydro-2,7-naphthyridine-1,6(2H,7H)-dione] is 74 nM; for `Cc1c2c(c(Nc3ccccc3F)n(C)c1=O)C(=O)N(OCCO)CC2Br` (stereo not drawn) [Example 43, 4-bromo-8-((2-fluorophenyl)amino)-2-(2-hydroxyethoxy)-5,7-dimethyl-3,4-dihydro-2,7-naphthyridine-1,6(2H,7H)-dione] it is 155 nM; for `CCCc1ccc(Nc2c3c(cc(=O)n2C)CCNC3=O)c(F)c1` [Example 54, 8-((2-fluoro-4-propylphenyl)amino)-7-methyl-3,4-dihydro-2,7-naphthyridine-1,6(2H,7H)-dione] it is 167 nM.
Take `Cc1c2c(c(Nc3ccc(OC(F)F)cc3F)n(C)c1=O)C(=O)NCC2` [Example 58, 8-((4-(difluoromethoxy)-2-fluorophenyl)amino)-5,7-dimethyl-3,4-dihydro-2,7-naphthyrdine-1,6(2H,7H)-dione]: half-maximal inhibition (IC50) was put at 45 nM.
The figure for `Cn1c(Nc2ccc(Br)cc2Cl)c2c(cc1=O)CCNC2=O` [Example 59, 8-((4-bromo-2-chlorophenyl)amino)-7-methyl-3,4-dihydro-2,7-naphthyridine-1,6(2H,7H)-dione] is 72 nM.
To `Cn1c(Nc2ccc(Br)cc2F)c2c(cc1=O)CCN(CCO)C2=O` [Example 60, 8-((4-bromo-2-fluorophenyl)amino)-2-(2-hydroxyethyl)-7-methyl-3,4-dihydro-2,7-naphthyridine-1,6(2H,7H)-dione trifluoroacetate] belongs 508 nM; to `CSc1ccc(Nc2c3c(cc(=O)n2C)CCN(OCC(F)F)C3=O)c(F)c1` [Example 63, 2-(2,2-difluoroethoxy)-8-((2-fluoro-4-(methylthio)phenyl)amino)-7-methyl-3,4-dihydro-2,7-naphthyridine-1,6(2H,7H)-dione], 114 nM.
